Ends that are not written are not given here. Peptide text beside a SMILES is read from it. * marks the point of attachment. Biotin = O=C1N[C@H]2[C@H](CS[C@H]2CCCCC(=O)*)N1
Key:
Assay in all cases: G' assay (10 uM PL peptide), results of TABLE 7 and TABLE 12
Assay type in all cases: binding
[1] = target: T1, PDZ protein (GST-PDZ fusion) (Homo sapiens, UniProt Q13424); conditions: PDZ Synt. 1 alpha, PDZ Domain 1
T1 construct: made in house; host or cells: E. coli (DH5alpha, BL21 or JM109)
T1 sequence (Q13424 1-505): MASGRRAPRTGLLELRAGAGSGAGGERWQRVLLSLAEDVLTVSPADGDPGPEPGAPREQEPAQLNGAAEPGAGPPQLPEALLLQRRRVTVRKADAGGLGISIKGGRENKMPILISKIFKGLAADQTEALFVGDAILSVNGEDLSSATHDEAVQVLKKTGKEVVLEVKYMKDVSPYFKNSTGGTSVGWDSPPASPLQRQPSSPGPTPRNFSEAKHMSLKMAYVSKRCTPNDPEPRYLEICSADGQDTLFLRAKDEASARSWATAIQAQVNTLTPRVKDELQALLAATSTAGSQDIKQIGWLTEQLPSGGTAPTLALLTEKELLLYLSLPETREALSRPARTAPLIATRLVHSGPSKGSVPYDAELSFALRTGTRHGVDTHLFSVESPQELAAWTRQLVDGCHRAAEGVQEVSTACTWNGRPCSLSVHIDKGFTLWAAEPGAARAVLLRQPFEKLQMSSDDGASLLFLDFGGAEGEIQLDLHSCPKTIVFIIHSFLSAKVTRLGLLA
Method in brief: (§1)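 Same steps as the G-zero format, apart from a peptide concentration of 10 uM in place of 20 uM in step 2. Amino-terminally biotinylated PL peptides bind GST-PDZ fusions, and retained peptide is quantified by 450 nm absorbance.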

[2] = target: T2, PDZ protein (GST-PDZ fusion) (Homo sapiens, UniProt Q07157); conditions: PDZ ZO-1, PDZ Domain 1
T2 construct: made in house; host or cells: E. coli (DH5alpha, BL21 or JM109)
Method in brief: as §1

[3] = target: T3, PDZ protein (GST-PDZ fusion) (Homo sapiens, UniProt Q9Y3R0)
T3 construct: made in house; host or cells: E. coli (DH5alpha, BL21 or JM109)
T3 sequence (Q9Y3R0 1-1128): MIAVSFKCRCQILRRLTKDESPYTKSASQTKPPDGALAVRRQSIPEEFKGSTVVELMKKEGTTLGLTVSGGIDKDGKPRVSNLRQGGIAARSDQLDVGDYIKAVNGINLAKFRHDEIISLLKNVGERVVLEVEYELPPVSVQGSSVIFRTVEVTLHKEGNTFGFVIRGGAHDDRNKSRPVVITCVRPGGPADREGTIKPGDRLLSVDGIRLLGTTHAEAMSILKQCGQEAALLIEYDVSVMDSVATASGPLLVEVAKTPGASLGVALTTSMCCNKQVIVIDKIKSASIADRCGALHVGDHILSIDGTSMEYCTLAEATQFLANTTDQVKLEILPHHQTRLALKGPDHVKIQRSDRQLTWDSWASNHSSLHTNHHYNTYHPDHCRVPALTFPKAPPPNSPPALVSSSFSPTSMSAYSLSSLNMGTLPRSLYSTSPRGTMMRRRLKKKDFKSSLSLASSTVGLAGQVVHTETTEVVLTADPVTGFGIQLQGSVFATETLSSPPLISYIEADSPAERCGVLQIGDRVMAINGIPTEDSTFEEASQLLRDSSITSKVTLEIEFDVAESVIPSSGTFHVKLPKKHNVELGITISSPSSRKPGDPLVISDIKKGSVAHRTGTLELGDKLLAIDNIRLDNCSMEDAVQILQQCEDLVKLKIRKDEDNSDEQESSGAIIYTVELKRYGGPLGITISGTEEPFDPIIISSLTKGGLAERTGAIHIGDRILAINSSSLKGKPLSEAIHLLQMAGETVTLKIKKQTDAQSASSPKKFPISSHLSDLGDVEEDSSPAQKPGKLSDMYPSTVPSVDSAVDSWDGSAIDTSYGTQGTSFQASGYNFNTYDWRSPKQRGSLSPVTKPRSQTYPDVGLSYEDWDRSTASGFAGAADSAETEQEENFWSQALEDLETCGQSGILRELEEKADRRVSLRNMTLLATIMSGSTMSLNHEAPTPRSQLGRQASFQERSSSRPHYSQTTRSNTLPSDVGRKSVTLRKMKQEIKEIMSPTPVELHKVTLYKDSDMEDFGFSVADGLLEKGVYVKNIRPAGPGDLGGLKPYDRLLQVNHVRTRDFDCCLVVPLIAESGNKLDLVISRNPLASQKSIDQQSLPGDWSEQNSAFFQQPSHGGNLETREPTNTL
Method in brief: as §1

T2 sequence (Q07157 whole entry, the tested form may be a part): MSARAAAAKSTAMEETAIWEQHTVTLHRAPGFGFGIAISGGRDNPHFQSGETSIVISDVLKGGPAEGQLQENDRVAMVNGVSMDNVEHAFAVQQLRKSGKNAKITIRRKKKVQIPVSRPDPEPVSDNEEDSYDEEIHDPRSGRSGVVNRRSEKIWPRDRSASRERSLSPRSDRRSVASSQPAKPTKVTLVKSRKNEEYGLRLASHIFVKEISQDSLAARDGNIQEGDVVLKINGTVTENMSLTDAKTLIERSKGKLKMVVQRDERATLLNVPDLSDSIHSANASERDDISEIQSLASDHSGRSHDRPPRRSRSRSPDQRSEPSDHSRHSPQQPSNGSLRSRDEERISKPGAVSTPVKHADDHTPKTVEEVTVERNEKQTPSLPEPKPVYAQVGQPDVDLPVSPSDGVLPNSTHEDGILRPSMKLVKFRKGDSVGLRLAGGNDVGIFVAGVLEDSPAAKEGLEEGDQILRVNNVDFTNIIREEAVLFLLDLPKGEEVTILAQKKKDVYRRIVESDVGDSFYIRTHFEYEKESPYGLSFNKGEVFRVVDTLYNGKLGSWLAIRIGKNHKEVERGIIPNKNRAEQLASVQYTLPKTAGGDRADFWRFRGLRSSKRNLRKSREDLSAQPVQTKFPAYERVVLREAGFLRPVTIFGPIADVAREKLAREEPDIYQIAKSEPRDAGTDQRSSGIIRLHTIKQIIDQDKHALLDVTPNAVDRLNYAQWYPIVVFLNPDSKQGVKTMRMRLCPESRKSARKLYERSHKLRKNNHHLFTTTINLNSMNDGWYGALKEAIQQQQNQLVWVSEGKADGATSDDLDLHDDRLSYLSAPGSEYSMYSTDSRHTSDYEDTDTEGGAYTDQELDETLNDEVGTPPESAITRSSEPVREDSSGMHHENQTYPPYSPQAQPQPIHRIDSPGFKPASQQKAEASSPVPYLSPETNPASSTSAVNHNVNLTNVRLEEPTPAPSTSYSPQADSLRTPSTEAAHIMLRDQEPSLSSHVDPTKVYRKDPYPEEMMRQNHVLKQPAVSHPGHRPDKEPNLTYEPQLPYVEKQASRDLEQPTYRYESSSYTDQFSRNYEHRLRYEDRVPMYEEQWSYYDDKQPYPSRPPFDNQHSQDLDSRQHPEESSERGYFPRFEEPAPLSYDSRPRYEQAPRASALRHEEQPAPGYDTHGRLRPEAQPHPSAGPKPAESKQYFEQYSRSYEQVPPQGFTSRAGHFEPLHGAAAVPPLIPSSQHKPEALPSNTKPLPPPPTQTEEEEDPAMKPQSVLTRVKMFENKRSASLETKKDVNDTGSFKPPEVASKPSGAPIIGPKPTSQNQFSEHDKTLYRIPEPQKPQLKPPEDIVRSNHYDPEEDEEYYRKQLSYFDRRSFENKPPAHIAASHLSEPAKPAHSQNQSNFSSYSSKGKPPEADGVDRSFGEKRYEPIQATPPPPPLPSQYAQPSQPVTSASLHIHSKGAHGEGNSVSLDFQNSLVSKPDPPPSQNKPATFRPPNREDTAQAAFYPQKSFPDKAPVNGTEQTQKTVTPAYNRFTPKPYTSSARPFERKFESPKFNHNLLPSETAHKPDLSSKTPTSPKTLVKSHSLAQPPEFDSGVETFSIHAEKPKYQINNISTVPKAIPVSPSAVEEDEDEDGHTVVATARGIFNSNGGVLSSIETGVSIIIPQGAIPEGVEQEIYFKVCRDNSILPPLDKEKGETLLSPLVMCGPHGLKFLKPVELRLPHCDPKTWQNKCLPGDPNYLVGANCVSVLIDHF

Q: `CC[C@H](C)[C@H](NC(=O)[C@H](Cc1c[nH]cn1)NC(=O)[C@H](C)NC(=O)[C@H](C)NC(=O)[C@H](CO)NC(=O)[C@@H]1CCCN1C(=O)[C@H](CCCNC(=N)N)NC(=O)[C@H](CC(=O)O)NC(=O)[C@H](CCCCN)NC(=O)[C@@H]1CCCN1C(=O)[C@H](CC(=O)O)NC(=O)[C@H](CCC(=O)O)NC(=O)CCCC[C@@H]1SC[C@@H]2NC(=O)N[C@@H]21)C(=O)N[C@H](C(=O)N[C@@H](CCC(=O)O)C(=O)N[C@@H](C)C(=O)N[C@@H](CC(C)C)C(=O)N[C@@H](CCC(=O)O)C(=O)N[C@H](C(=O)N[C@@H](CC(=O)O)C(=O)N[C@H](C(=O)O)C(C)C)[C@@H](C)O)C(C)C` [PDZ-binding kinase (PBK)] (Biotin-EDPKDRPSAAHIVEALETDV-OH; C-terminus assumed) was tested. Which Classification [1] did it give?
A: 1 (A450 nm 0-1)

Q: With `CC(C)C[C@H](NC(=O)[C@H](C)NC(=O)[C@@H](NC(=O)[C@H](CCC(=O)O)NC(=O)[C@H](CCCNC(=N)N)NC(=O)[C@H](CCCNC(=N)N)NC(=O)CNC(=O)[C@H](CCC(N)=O)NC(=O)[C@H](CC(C)C)NC(=O)[C@H](CCCNC(=N)N)NC(=O)CNC(=O)CNC(=O)[C@H](CCCNC(=N)N)NC(=O)[C@H](C)NC(=O)[C@H](CO)NC(=O)[C@H](CCCNC(=N)N)NC(=O)CNC(=O)CNC(=O)[C@H](C)NC(=O)[C@H](C)NC(=O)CCCC[C@@H]1SC[C@@H]2NC(=O)N[C@@H]21)[C@@H](C)O)C(=O)O` [HPV E6 33 (modified)] (Biotin-AAGGRSARGGRLQGRRETAL-OH; C-terminus assumed) as the molecule, how does the Classification [1] read?
A: 3 (A450 nm 2-3)

Q: Which Classification [1] does the source give for `CSCC[C@H](NC(=O)[C@H](C)NC(=O)[C@H](CCCNC(=N)N)NC(=O)CNC(=O)[C@@H](NC(=O)[C@H](Cc1c[nH]c2ccccc12)NC(=O)[C@H](CCCNC(=N)N)NC(=O)CNC(=O)CCCC[C@@H]1SC[C@@H]2NC(=O)N[C@@H]21)[C@@H](C)O)C(=O)N[C@@H](CO)C(=O)N[C@@H](C)C(=O)N[C@@H](Cc1c[nH]c2ccccc12)C(=O)N[C@@H](CCCCN)C(=O)N1CCC[C@H]1C(=O)N[C@H](C(=O)N[C@@H](CCCNC(=N)N)C(=O)N[C@@H](CCCNC(=N)N)C(=O)N[C@@H](CCC(=O)O)C(=O)N[C@H](C(=O)N[C@@H](CCC(=O)O)C(=O)N[C@H](C(=O)O)C(C)C)[C@@H](C)O)[C@@H](C)O` [HPV E6 #35 (modified)] (Biotin-GRWTGRAMSAWKPTRRETEV-OH; C-terminus assumed) here?
A: 5 (A450 nm of 4 more than 2× repeated)

Q: And the Classification [2]?
A: 1 (A450 nm 0-1)

Q: And the Classification ([3]; PDZ GRIP1, PDZ Domain 3)?
A: 2 (A450 nm 1-2)

Q: What about the Classification ([3]; PDZ GRIP1, PDZ Domain 6) of the same molecule?
A: 2 (A450 nm 1-2)

Q: For “ARHRVTSYTSSSVNVSSNL (Biotin-ARHRVTSYTSSSVNVSSNL) [IL-8RB]”, which Classification [1] is on record?
A: 1 (A450 nm 0-1)

Q: For TQGFPGPATWRRISSLESEV, which Classification [1] is on record?
A: 4 (A450 nm 3-4)

Q: With `CC(C)C[C@H](NC(=O)[C@H](CCCNC(=N)N)NC(=O)CNC(=O)CNC(=O)[C@H](CCCNC(=N)N)NC(=O)[C@H](C)NC(=O)[C@@H]1CCCN1C(=O)[C@H](CCCNC(=N)N)NC(=O)CNC(=O)CNC(=O)[C@@H](NC(=O)[C@H](C)NC(=O)CCCC[C@@H]1SC[C@@H]2NC(=O)N[C@@H]21)C(C)C)C(=O)N[C@@H](CCC(N)=O)C(=O)NCC(=O)N[C@@H](CCCNC(=N)N)C(=O)N[C@@H](CCCNC(=N)N)C(=O)N[C@@H](CCC(N)=O)C(=O)N[C@H](C(=O)N[C@@H](CCC(N)=O)C(=O)N[C@H](C(=O)O)C(C)C)[C@@H](C)O` [HPV E6 58 (modified)] (Biotin-AVGGRPARGGRLQGRRQTQV-OH; C-terminus assumed) as the molecule, how does the Classification [1] read?
A: 2 (A450 nm 1-2)

Q: Which Classification [1] does the source give for `CC(C)C[C@H](NC(=O)[C@H](CC(=O)O)NC(=O)[C@H](CO)NC(=O)[C@H](CCC(=O)O)NC(=O)CNC(=O)[C@H](Cc1ccc(O)cc1)NC(=O)[C@H](CC(C)C)NC(=O)[C@H](C)NC(=O)[C@H](CO)NC(=O)[C@H](CO)NC(=O)[C@H](Cc1ccccc1)NC(=O)[C@H](C)NC(=O)[C@H](C)NC(=O)[C@H](Cc1ccc(O)cc1)NC(=O)[C@H](CC(=O)O)NC(=O)[C@H](CC(C)C)NC(=O)[C@H](C)NC(=O)CNC(=O)[C@@H]1CCCN1C(=O)[C@@H](NC(=O)CCCC[C@@H]1SC[C@@H]2NC(=O)N[C@@H]21)C(C)C)C(=O)O` [a-actinin 2] (Biotin-VPGALDYAAFSSALYGESDL-OH; C-terminus assumed) here?
A: 3 (A450 nm 2-3)

Q: Which Classification [1] does the source give for `CC(C)C[C@H](NC(=O)[C@H](C)NC(=O)[C@H](CO)NC(=O)CNC(=O)[C@@H](NC(=O)CCCC[C@@H]1SC[C@@H]2NC(=O)N[C@@H]21)[C@@H](C)O)C(=O)N[C@@H](CCC(N)=O)C(=O)N[C@@H](C)C(=O)N[C@@H](Cc1c[nH]c2ccccc12)C(=O)N[C@@H](CCCNC(=N)N)C(=O)N[C@@H](Cc1c[nH]cn1)C(=O)N[C@H](C(=O)N[C@@H](CO)C(=O)N[C@@H](CCCNC(=N)N)C(=O)N[C@@H](CCC(N)=O)C(=O)N[C@@H](C)C(=O)N[C@H](C(=O)N[C@@H](CCC(=O)O)C(=O)N[C@@H](CO)C(=O)N[C@H](C(=O)N[C@H](C(=O)O)C(C)C)[C@@H](C)O)[C@@H](C)O)[C@@H](C)O` [HPV E6 #66 (modified)] (Biotin-TGSALQAWRHTSRQATESTV-OH; C-terminus assumed) here?
A: 2 (A450 nm 1-2)
